Test results published in patent US8178506B2, “Oligomeric compounds and compositions for use in modulation of small non-coding RNAs” (Regulus Therapeutics Inc., priority 2003, dated 2012).
In the oligonucleotide strings, read from the 5' end, every base follows the letter of its sugar. An asterisk marks phosphorothioate; unmarked linkages are phosphodiester. Other units and linkages are bracketed, terminal groups are in braces. A string of capitals states the bases alone. e = 2'-O-(2-methoxyethyl) (MOE); [5mC] = 5-methylcytosine

Experiments:
Format in all cases: cell-based, human
Glut4 = Glut4 mRNA expression in adipocytes (real-time PCR)
Procedure: (§1) Expression of the four hallmark genes, HSL, aP2, Glut4, and PPARγ, is also measured in adipocytes transfected with oligomeric compounds of the invention. Cells are lysed on day nine post-transfection and total RNA is harvested. The amount of total RNA in each sample is determined using a Ribogreen Assay (Invitrogen Life Technologies, Carlsbad, Calif.).
(§2) For assaying adipocyte differentiation, expression of the four hallmark genes, HSL, aP2, Glut4, and PPARγ, as well as triglyceride (TG) accumulation and leptin secretion were measured in adipocytes transfected with the uniform 2′-MOE phosphorothioate (PS) oligomeric compounds previously described. Cells are lysed on day nine post-transfection, in a guanadinium-containing buffer and total RNA is harvested. Real-time PCR is performed (Applied Biosystems, Prism 7700) on the total RNA using the following primer/probe sets for the adipocyte differentiation hallmark genes: (aP2): forward 5′-GGTGGTGGAATGCGTCATG-3′ (SEQ ID NO: 746), reverse 5′-[…]-3′ (SEQ ID NO: 747), probe 5′-FAM-[…]-TAMRA-3′ (SEQ ID NO: 748); (Glut4): forward 5′-GGCCTCCGCAGGTTCTG-3′ (SEQ ID NO: 749), reverse 5′-[…]-3′ (SEQ ID NO: 750), probe 5′-FAM-[…]-TAMRA-3′ (SEQ ID NO: 751); (HSL): forward 5′-ACCTGCGCACAATGACACA-3′ (SEQ ID NO: 752), reverse 5′-[…]-3′ (SEQ ID NO: 753), probe 5′-FAM-[…]-TAMRA-3′ (SEQ ID NO: 754); (PPAR-γ): forward 5′-[…]-3′ (SEQ ID NO: 755), reverse 5′-[…]-3′ (SEQ ID NO: 756), probe 5′-FAM-[…]-TAMRA-3′ (SEQ ID NO: 757). The amount of total RNA in each sample is determined using a Ribogreen Assay (Molecular Probes, Eugene, Oreg.), and expression levels of the adipocyte differentiation hallmark genes were normalized to total RNA.

HSL = HSL mRNA expression in adipocytes (real-time PCR)
Procedure: as §1, §2

adipocytes = assay: Triglyceride accumulation assay in adipocytes
Procedure: The triglyceride accumulation assay measures the synthesis of triglyceride by adipocytes. Triglyceride accumulation is measured using the Infinity™ Triglyceride reagent kit (Sigma-Aldrich, St. Louis, Mo.). On day nine post-transfection, cells are washed and lysed at room temperature, and the triglyceride assay reagent is added. Triglyceride accumulation is measured based on the amount of glycerol liberated from triglycerides by the enzyme lipoprotein lipase. Liberated glycerol is phosphorylated by glycerol kinase, and hydrogen peroxide is generated during the oxidation of glycerol-1-phosphate to dihydroxyacetone phosphate by glycerol phosphate oxidase. Horseradish peroxidase (HRP) uses H2O2 to oxidize 4-aminoantipyrine and 3,5 dichloro-2-hydroxybenzene sulfonate to produce a red-colored dye. Dye absorbance, which is proportional to the concentration of glycerol, is measured at 515 nm using an UV spectrophotometer. Glycerol concentration is calculated from a standard curve for each assay, and data are normalized to total cellular protein as determined by a Bradford assay (Bio-Rad Laboratories, Hercules, Calif.).
An increase in triglyceride content is another well-established marker for adipocyte differentiation. The triglyceride accumulation assay measures the synthesis of triglyceride by adipocytes. Triglyceride accumulation was measured using the Infinity™ Triglyceride reagent kit (Sigma-Aldrich, St. Louis, Mo.). Human white preadipocytes (Zen-Bio Inc., Research Triangle Park, N.C.) were grown in preadipocyte media (ZenBio Inc.). One day before transfection, 96-well plates were seeded with 3000 cells/well. Cells were transfected according to standard published procedures with 250 nM oligomeric compound in LIPOFECTIN™ (Invitrogen Corporation, Carlsbad, Calif.) (Monia et al., J. Biol. Chem. 1993 268(19):14514-22). Oligomeric compounds were tested in triplicate on each 96-well plate, and the effects of TNF-α, a positive drug control that inhibits adipocyte differentiation, were also measured in triplicate. Negative and transfectant-only controls may be measured up to six times per plate. After the cells have reached confluence (approximately three days), they were exposed to differentiation media (Zen-Bio, Inc.) containing a PPAR-γ agonist, IBMX, dexamethasone, and insulin for three days. Cells were then fed adipocyte media (Zen-Bio, Inc.), which was replaced at 2 to 3 day intervals. […] Triglyceride accumulation was measured based on the amount of glycerol liberated from triglycerides by the enzyme lipoprotein lipase. Liberated glycerol is phosphorylated by glycerol kinase, and hydrogen peroxide is generated during the oxidation of glycerol-1-phosphate to dihydroxyacetone phosphate by glycerol phosphate oxidase. Horseradish peroxidase (HRP) uses H2O2 to oxidize 4-aminoantipyrine and 3,5 dichloro-2-hydroxybenzene sulfonate to produce a red-colored dye. Dye absorbance, which is proportional to the concentration of glycerol, was measured at 515 nm using an UV spectrophotometer. Glycerol concentration was calculated from a standard curve for each assay, and data were normalized to total cellular protein as determined by a Bradford assay (Bio-Rad Laboratories, Hercules, Calif.). Results are expressed as a percent±standard deviation relative to transfectant-only control.

PPARγ = PPARγ mRNA expression in adipocytes (real-time PCR)
Procedure: as §1, §2

aP2 = aP2 mRNA expression in adipocytes (real-time PCR); details: for AP2 mRNA: Table 18, differentiating adipocytes, control = treatment with ISIS 342673; for aP2 mRNA: differentiating adipocytes transfected with oligomeric compound, Table 75
Procedure: as §1, §2

[1] = Table 18, differentiating adipocytes, control = treatment with ISIS 342673
[2] = differentiating adipocytes transfected with oligomeric compound, Table 75

Substance	GLUT4 mRNA (Glut4; [1])	GLUT4 mRNA (Glut4; [2])	HSL mRNA (HSL; [1])	HSL mRNA (HSL; [2])	TG (triglyceride accumulation) (adipocytes; [1])	TG (triglyceride accumulation) (adipocytes; [2])	PPAR gamma mRNA (PPARγ; [1])	PPAR gamma mRNA (PPARγ; [2])	AP2 mRNA (aP2)	aP2 mRNA (aP2)
328101 (antisense eA*eA*eA*e[5mC]*e[5mC]*e[5mC]*e[5mC]*eT*eA*eT*e[5mC]*eA*e[5mC]*eG*eA*eT*eT*eA*eG*e[5mC]*eA) [compound 328101]	84.7 percentage of control	57 percentage of untreated control (UTC)	91.8 percentage of control	78 percentage of untreated control (UTC)	108.6 percentage of control	67 percentage of untreated control (UTC)	79.3 percentage of control	70 percentage of untreated control (UTC)	83.2 percentage of control	83 percentage of untreated control (UTC)
346919 (CUACCUGCACGAACAGCACUUUG; all 2'-MOE, all phosphorothioate, methylation of C and T or U not given here) [compound 346919]		50 percentage of untreated control (UTC)		45 percentage of untreated control (UTC)		44 percentage of untreated control (UTC)		65 percentage of untreated control (UTC)		64 percentage of untreated control (UTC)
328099 (antisense eA*eA*eG*eA*eA*e[5mC]*eA*eT*eT*eA*eA*eG*e[5mC]*eA*eT*e[5mC]*eT*eG*eA*e[5mC]*eA) [compound 328099]	86.8 percentage of control	61 percentage of untreated control (UTC)	88.4 percentage of control	74 percentage of untreated control (UTC)	93.9 percentage of control	57 percentage of untreated control (UTC)	81.9 percentage of control	72 percentage of untreated control (UTC)	85.9 percentage of control	80 percentage of untreated control (UTC)
346907 (AUGUAUGUGGGACGGUAAACCA; all 2'-MOE, all phosphorothioate, methylation of C and T or U not given here) [compound 346907]		37 percentage of untreated control (UTC)		36 percentage of untreated control (UTC)		47 percentage of untreated control (UTC)		51 percentage of untreated control (UTC)		50 percentage of untreated control (UTC)
328094 (antisense eT*eT*eG*eT*eA*eA*eG*e[5mC]*eA*eG*eT*eT*eT*eT*eG*eT*eT*eG*eA*e[5mC]*eA) [compound 328094]		83 percentage of untreated control (UTC)		74 percentage of untreated control (UTC)		65 percentage of untreated control (UTC)		94 percentage of untreated control (UTC)		68 percentage of untreated control (UTC)
346689 (CAUCAUUACCAGGCAGUAUUAGAG; all 2'-MOE, all phosphorothioate, methylation of C and T or U not given here) [compound 346689]		45 percentage of untreated control (UTC)		63 percentage of untreated control (UTC)		59 percentage of untreated control (UTC)		64 percentage of untreated control (UTC)		79 percentage of untreated control (UTC)
346917 (CAGCUAUGCCAGCAUCUUGCCU; all 2'-MOE, all phosphorothioate, methylation of C and T or U not given here) [compound 346917]		20 percentage of untreated control (UTC)		27 percentage of untreated control (UTC)		39 percentage of untreated control (UTC)		31 percentage of untreated control (UTC)		33 percentage of untreated control (UTC)
327972 (antisense eA*e[5mC]*eT*e[5mC]*eA*e[5mC]*e[5mC]*eG*eA*e[5mC]*eA*eG*eG*eT*eT*eG*eA*eA*eT*eG*eT*eT) [compound 327972]		75 percentage of untreated control (UTC)		70 percentage of untreated control (UTC)		67 percentage of untreated control (UTC)		85 percentage of untreated control (UTC)		70 percentage of untreated control (UTC)
328104 (antisense eT*eA*eT*eG*eA*eT*eA*eG*e[5mC]*eT*eT*e[5mC]*e[5mC]*e[5mC]*e[5mC]*eA*eT*eG*eT*eA*eA) [compound 328104]	119.1 percentage of control	83 percentage of untreated control (UTC)	98.2 percentage of control	81 percentage of untreated control (UTC)	122.6 percentage of control	64 percentage of untreated control (UTC)	90.4 percentage of control	73 percentage of untreated control (UTC)	102.2 percentage of control	94 percentage of untreated control (UTC)
328109 (antisense eA*eA*eA*eG*eA*eA*eG*eT*eA*eT*eA*eT*eG*e[5mC]*eA*eT*eA*eG*eG*eA*eA) [compound 328109]	106.6 percentage of control	55 percentage of untreated control (UTC)	86.9 percentage of control	62 percentage of untreated control (UTC)	84.9 percentage of control	23 percentage of untreated control (UTC)	96.1 percentage of control	69 percentage of untreated control (UTC)	84.9 percentage of control	68 percentage of untreated control (UTC)
344614 (CCAGCAGCACCUGGGGCAGU; all 2'-MOE, all phosphorothioate, methylation of C and T or U not given here) [compound 344614]		61 percentage of untreated control (UTC)		71 percentage of untreated control (UTC)		89 percentage of untreated control (UTC)		86 percentage of untreated control (UTC)		78 percentage of untreated control (UTC)
